What was measured:
[1] = test system: guineagrass; assay: Test D guineagrass; type: in vivo, Panicum maximum; conditions: Preemergence, 0 to 100 scale
Source text: (§1) Seeds, tubers, or plant parts of Alexandergrass (Brachiaria plantaginea), bermuda-grass (Cynodon dactylon), common pursiane (Portulaca oleracea), common ragweed (Ambrosia elatior), common groundsel (Senecio vulgaris), dallisgrass (Paspalum dilatatum), goosegrass (Eleusine indica), guineagrass (Panicum maximum), itchgrass (Rottboellia exaltata), Johnson grass (Sorghum halepense), large crabgrass (Digitaria sanguinalis), pitted morningglory (Ipomoea lacunosa), purple nutsedge (Cyperus rotundus), sandbur (Cenchrus echinatus), sourgrass (Trichachne insularis), Spanishneedles (Bidens bipinnata), surinam grass (Brachiaria decumbens) and tall mallow (Malva sylvestris) were planted into greenhouse pots of flats containing greenhouse planting medium. Plant species were grown in separate pots or individual compartments. Preemergence applications were made within one day of planting the seed or plant part.
(§2) Test chemicals were formulated in a non-phytotoxic solvent mixture which included a surfactant and applied preemergence to the surface of the pot containing seeds in a sandy loam soil. Untreated control pots and treated pots were placed in the greenhouse for growth and visually evaluated for injury 14 to 21 days after herbicide application. Plant response ratings, summarized in Table C, are based on a 0 to 100 scale where 0 is no injury and 100 is complete control. A dash (−) response means no test result.

[2] = test system: sandbur; assay: Test D sandbur; type: in vivo, Cenchrus echinatus; conditions: Preemergence, 0 to 100 scale
Summary of the method: (§3)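 Greenhouse pots, seeds in sandy loam; compounds formulated in non-phytotoxic solvent with surfactant; preemergence treatments went on the soil surface within one day of planting. Injury rated visually 14 to 21 days after application on a 0 (none) to 100 (complete control) scale.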

[3] = test system: purple nutsedge; assay: Test D purple nutsedge; type: in vivo, Cyperus rotundus; conditions: Preemergence, 0 to 100 scale
Source text: as §1, §2

[4] = test system: Alexandergrass; assay: Test D Alexandergrass; type: in vivo, Brachiaria plantaginea; conditions: Preemergence, 0 to 100 scale
Summary of the method: as §3

[5] = test system: tall mallow; assay: Test D tall mallow; type: in vivo, Malva sylvestris; conditions: Preemergence, 0 to 100 scale
Summary of the method: as §3

[6] = test system: common ragweed; assay: Test D common ragweed; type: in vivo, Ambrosia elatior; conditions: Preemergence, 0 to 100 scale
Summary of the method: as §3

[7] = test system: common groundsel; assay: Test D common groundsel; type: in vivo, Senecio vulgaris; conditions: Preemergence, 0 to 100 scale
Source text: as §1, §2

[8] = test system: large crabgrass; assay: Test D large crabgrass; type: in vivo, Digitaria sanguinalis; conditions: Preemergence, 0 to 100 scale
Summary of the method: as §3

[9] = test system: common pursiane; assay: Test D common purslane; type: in vivo, Portulaca oleracea
Summary of the method: as §3

[10] = Rate 32 g/ha, 0 no injury, 100 complete control
[11] = Rate 64 g/ha, 0 no injury, 100 complete control
[12] = Rate 125 g/ha, 0 no injury, 100 complete control
[13] = Rate 32 g/ha; Preemergence; 0 to 100 scale, 0 no injury, 100 complete control
[14] = Rate 64 g/ha, Preemergence; 0 to 100 scale, 0 no injury, 100 complete control
[15] = Rate 125 g/ha, Preemergence; 0 to 100 scale, 0 no injury, 100 complete control
[16] = Rate 250 g/ha; Preemergence; 0 to 100 scale
[17] = Rate 16 g/ha, 0 no injury, 100 complete control

For Cc1cccc(C)c1-n1c(=O)on(C(=O)N(c2ccc(F)cc2F)C(C)C)c1=O [Compound 28], the “Plant response rating, Guineagrass” value [1, 10] was 40, the “Plant response rating, Guineagrass” value [1, 11] was 65 and the “Plant response rating, Guineagrass” value [1, 12] was 75. The “Plant response rating, Guineagrass” value ([1]; Rate 250 g/ha) was 98, the “Plant response rating, Sandbur” value [2, 10] was 0 and the “Sandbur plant response rating” value [2, 11] was 0. For the same molecule, the “Sandbur plant response rating” value [2, 12] was 0, the “Plant response rating, Sandbur” value ([2]; Rate 250 g/ha) was 0 and the “Plant response rating, Purple nutsedge” value [3, 10] was 0. For the same molecule, the “Purple nutsedge plant response rating” value [3, 11] was 0, the “Purple nutsedge plant response rating” value [3, 12] was 0 and the “Plant response rating, Purple nutsedge” value ([3]; Rate 250 g/ha) was 0. The “Plant response rating, Alexandergrass” value [4, 10] was 0, the “Plant response rating, Alexandergrass” value [4, 11] was 0 and the “Plant response rating, Alexandergrass” value [4, 12] was 60. For the same molecule, the “Plant response rating, Alexandergrass” value ([4]; Rate 250 g/ha) was 75, the “Plant response rating, Tall Mallow” value [5, 10] was 0 and the “Tall Mallow plant response rating” value [5, 11] was 0. The “Tall Mallow plant response rating” value [5, 12] was 0, the “Plant response rating, Tall Mallow” value ([5]; Rate 250 g/ha) was 0 and the “Plant response rating, C. ragweed” value [6, 10] was 0. For the same molecule, the “Plant response rating, C. ragweed” value [6, 11] was 0, the “Plant response rating, C. ragweed” value [6, 12] was 0 and the “Plant response rating, C. ragweed” value ([6]; Rate 250 g/ha) was 0. The “Plant response rating, Com. groundsel” value [7, 10] was 0, the “Plant response rating, Com. groundsel” value [7, 11] was 0 and the “Plant response rating, Com. groundsel” value [7, 12] was 0. For the same molecule, the “Plant response rating, Com. groundsel” value ([7]; Rate 250 g/ha) was 0, the “Plant response rating Large crabgrass” value [8, 10] was 85 and the “Plant response rating Large crabgrass” value [8, 11] was 98. For the same molecule, the “Plant response rating Large crabgrass” value [8, 12] was 100, the “Plant response rating Large crabgrass” value ([8]; Rate 250 g/ha) was 100 and the “Plant response rating, C. purslane” value [9, 13] was 0. The “Plant response rating, C. purslane” value [9, 14] was 0, the “Plant response rating, C. purslane” value [9, 15] was 0 and the “Plant response rating, C. purslane” value [9, 16] was 0.

With CCn1c(=O)on(C(=O)N(c2ccc(F)cc2)C(C)C)c1=O [Compound 107] the “Plant response rating, Guineagrass” value [1, 17] was 65, the “Plant response rating, Guineagrass” value [1, 10] was 75 and the “Plant response rating, Guineagrass” value [1, 11] was 100. For the same molecule, the “Plant response rating, Guineagrass” value [1, 12] was 100, the “Plant response rating, Guineagrass” value ([1]; Rate 250 g/ha) was 100 and the “Plant response rating, Guineagrass” value ([1]; Rate 500 g/ha) was 100. The “Plant response rating, Sandbur” value [2, 17] was 30, the “Plant response rating, Sandbur” value [2, 10] was 30 and the “Sandbur plant response rating” value [2, 11] was 65. For the same molecule, the “Sandbur plant response rating” value [2, 12] was 98, the “Plant response rating, Sandbur” value ([2]; Rate 250 g/ha) was 100 and the “Plant response rating, Sandbur” value ([2]; Rate 500 g/ha) was 100. The “Plant response rating, Purple nutsedge” value [3, 17] was 0, the “Plant response rating, Purple nutsedge” value [3, 10] was 0 and the “Purple nutsedge plant response rating” value [3, 11] was 20. The “Purple nutsedge plant response rating” value [3, 12] was 65, the “Plant response rating, Purple nutsedge” value ([3]; Rate 250 g/ha) was 85 and the “Plant response rating, Purple nutsedge” value ([3]; Rate 500 g/ha) was 85. The “Plant response rating, Alexandergrass” value [4, 17] was 0, the “Plant response rating, Alexandergrass” value [4, 10] was 90 and the “Plant response rating, Alexandergrass” value [4, 11] was 100. For the same molecule, the “Plant response rating, Alexandergrass” value [4, 12] was 100, the “Plant response rating, Alexandergrass” value ([4]; Rate 250 g/ha) was 100 and the “Plant response rating, Alexandergrass” value ([4]; Rate 500 g/ha) was 100. The “Plant response rating, Tall Mallow” value [5, 17] was 0, the “Plant response rating, Tall Mallow” value [5, 10] was 0 and the “Tall Mallow plant response rating” value [5, 11] was 0. For the same molecule, the “Tall Mallow plant response rating” value [5, 12] was 90, the “Plant response rating, Tall Mallow” value ([5]; Rate 250 g/ha) was 98 and the “Plant response rating, Tall Mallow” value ([5]; Rate 500 g/ha) was 100. The “Plant response rating, C. ragweed” value [6, 17] was 0, the “Plant response rating, C. ragweed” value [6, 10] was 0 and the “Plant response rating, C. ragweed” value [6, 11] was 0. For the same molecule, the “Plant response rating, C. ragweed” value [6, 12] was 85, the “Plant response rating, C. ragweed” value ([6]; Rate 250 g/ha) was 100 and the “Plant response rating, C. ragweed” value ([6]; Rate 500 g/ha) was 100. The “Plant response rating, Com. groundsel” value [7, 17] was 40, the “Plant response rating, Com. groundsel” value [7, 10] was 75 and the “Plant response rating, Com. groundsel” value [7, 11] was 98. The “Plant response rating, Com. groundsel” value [7, 12] was 100, the “Plant response rating, Com. groundsel” value ([7]; Rate 250 g/ha) was 100 and the “Plant response rating, Com. groundsel” value ([7]; Rate 500 g/ha) was 100. For the same molecule, the “Plant response rating Large crabgrass” value [8, 17] was 85, the “Plant response rating Large crabgrass” value [8, 10] was 98 and the “Plant response rating Large crabgrass” value [8, 11] was 100. The “Plant response rating Large crabgrass” value [8, 12] was 100, the “Plant response rating Large crabgrass” value ([8]; Rate 250 g/ha) was 100 and the “Plant response rating Large crabgrass” value ([8]; Rate 500 g/ha) was 100. For the same molecule, the “Plant response rating, C. purslane” value ([9]; Rate 16 g/ha; Preemergence; 0 to 100 scale, 0 no injury, 100 complete control) was 0, the “Plant response rating, C. purslane” value [9, 13] was 0 and the “Plant response rating, C. purslane” value [9, 14] was 0. For the same molecule, the “Plant response rating, C. purslane” value [9, 15] was 0, the “Plant response rating, C. purslane” value [9, 16] was 0 and the “Plant response rating, C. purslane” value ([9]; Rate 500 g/ha, Preemergence; 0 to 100 scale) was 100. For the same molecule, the “Plant response rating, C. purslane” value ([9]; Rate 500 g/ha; Preemergence; 0 to 100 scale) was 0.

In the case of C=C(C)Cn1c(=O)on(C(=O)N(c2ccc(F)cc2)C(C)C)c1=O [Compound 139], the “Plant response rating, Guineagrass” value [1, 11] is reported as 65, the “Sandbur plant response rating” value [2, 11] is reported as 40 and the “Purple nutsedge plant response rating” value [3, 11] is reported as 0. For the same molecule, the “Plant response rating, Alexandergrass” value [4, 11] was 60, the “Tall Mallow plant response rating” value [5, 11] was 20 and the “Plant response rating, C. ragweed” value [6, 11] was 0. For the same molecule, the “Plant response rating, Com. groundsel” value [7, 11] was 0, the “Plant response rating Large crabgrass” value [8, 11] was 90 and the “Plant response rating, C. purslane” value [9, 14] was 0.

Reference: patent US6737383B1, “Herbicidal oxadiazolidines” (priority 1999, dated 2004)
